Several values for one entry are separate records, joined by “and”; a condition that tells them apart may be missing. Equal entries are not always repeated. Structures can show the parent of a compound that is named as a salt.
Legend:
[1] = Osmolality measurements: contribution of amphipathic base to osmotic pressure of salt solutions (aggregation); format: physicochemical; conditions: for mOsm versos mM (slope); extent of dissociation: slope of osmolality (mOsm) versus concentration (mM); for % of expected value of osmolality contribution / Level of aggregation / Expected contribution of 25 mM amphipathic base to osmolality (calibrated in DDW and NaCl): 25 mM base; for Expected contribution of 25 mM amphipathic base to osmolality (calibrated in DDW and NaCl): pure water or NaCl solutions; for Osmolality of agent: 25 mM in DDW (pure water)
Procedure: Level of aggregation of the exemplified agents was evaluated by measuring osmotic pressure. Osmotic pressure is a colrgative property, depending on the actual concentration (particles per unit volume) of a solution. Thus, in case of aggregate formation in a solution, the actual concentration of the solution will be lower than the theoretical concentration of the solution, which will be evident by a lower than expected osmotic pressure.
For osmotic pressure measurements, double distilled water (DDW) obtained using Water ProPlus (Labconco, Kansas City, Mo., USA) was used for all solutions. Osmolality was measured using a 5500 Vapor Pressure Osmometer (Wescor Inc., Logan, Utah, USA) or freezing point osmometer μOSMETIE MicroOsmometer of Precision Systems (atich, MA, USA). Calibration curves of TMN, AO, and BUP osmolality in the range of 10-40 mM in pure water were used to describe the relationship between concentration and osmotic pressure of all compounds.
The effect of salts on the osmotic pressure of the amphipathic base (25 mM) was also examined by comparing the effect of NaCl with that of various ammonium salts. As a control, the osmotic pressure of each salt alone was also measured.

[2] = Conductivity measurements of salts; format: physicochemical; conditions: salt 50 mM in DDW
Procedure: Solutions in concentration range of 0.5-50 mM of NaCl and ammonium salts were prepared in DDW and measured in an “Oyster” conductivity meter (KTech).

[3] = Partition coefficient (Kp) octanol/water; format: physicochemical
Source text: Other parameters that may influence kinetics of release include the lipophilicity of the loaded agent and the liposome trapped volume. The higher the lipophilicity, the faster will be the release rate of the agent from the liposome. The lipophilicity of a compound may be reflected by its partition coefficient (Kp) is between octanol and water.

[4] = Aggregation of BUP and AO with dextran sulfate (DS); format: physicochemical; conditions: for Mole ratio weak base/DS at which aggregation (precipitation) starts: dextran sulfate
Source text: The dependence of the aggregation process on the loaded molecule was shown by the examples of BUP and AO. […] This however can be modified through the use of sodium salt of dextran sulfate as an additional counter ion. […]

[5] = Kinetics of TMN leakage from egg PC MLV; conditions: for Leakage from liposomes: 4° C.

SMILES	mOsm versos mM (slope); extent of dissociation [1]	% of expected value of osmolality contribution ([1]; ammonium chloride 40 mM) [%]	% of expected value of osmolality contribution ([1]; ammonium chloride 80 mM) [%]	Level of aggregation ([1]; ammonium chloride 80 mM)	% of expected value of osmolality contribution ([1]; ammonium citrate 40 mM) [%]	% of expected value of osmolality contribution ([1]; ammonium citrate 80 mM) [%]	Level of aggregation ([1]; ammonium citrate 80 mM)	% of expected value of osmolality contribution ([1]; ammonium glucuronate 40 mM) [%]	% of expected value of osmolality contribution ([1]; ammonium glucuronate 80 mM) [%]	Level of aggregation ([1]; ammonium glucuronate 80 mM)	% of expected value of osmolality contribution ([1]; ammonium phosphate 40 mM) [%]	% of expected value of osmolality contribution ([1]; ammonium phosphate 80 mM) [%]	% of expected value of osmolality contribution ([1]; ammonium sulfate 40 mM) [%]	% of expected value of osmolality contribution ([1]; ammonium sulfate 80 mM) [%]	Level of aggregation ([1]; ammonium sulfate 80 mM)	Expected contribution of 25 mM amphipathic base to osmolality (calibrated in DDW and NaCl) [1]	Osmolality of agent [1] [mOsm]	Measured contribution of 25 mM base to osmolality ([1]; ammonium chloride 40 mM) [mOsm]	Measured contribution of 25 mM base to osmolality ([1]; ammonium chloride 80 mM)	Measured contribution of 25 mM base to osmolality ([1]; ammonium citrate 40 mM) [mOsm]	further results
N.N.O=P(O)(O)O [(NH4)2HPO4, ammonium phosphate, dibasic]	2.83	–	–	–	–	–	–	–	–	–	–	–	–	–	–	–	–	–	–	–	–
N.N.O=S(=O)(O)O [(NH4)2SO4, ammonium sulfate]	2.97	–	–	–	–	–	–	–	–	–	–	–	–	–	–	–	–	–	–	–	–
N.N.N.O=C(O)CC(O)(CC(=O)O)C(=O)O [(NH4)3 citrate, ammonium citrate, tribasic]	3.45	–	–	–	–	–	–	–	–	–	–	–	–	–	–	–	–	–	–	–	Conductivity [2]: 11.96
CN(C)c1ccc2cc3ccc(N(C)C)cc3nc2c1 [AO, Acridine orange hemi(zinc chloride) salt]	–	100	100	None//None	96	90	Low	100	100	None//None	92	79	94	85	Low	48±4 mOsm and 48 mOsm	48	49	51 mOsm and 48 mOsm	46	Measured contribution of 25 mM base to osmolality ([1]; ammonium citrate 80 mM): 43 mOsm; Measured contribution of 25 mM base to osmolality ([1]; ammonium glucuronate 40 mM): 48 mOsm; Measured contribution of 25 mM base to osmolality ([1]; ammonium glucuronate 80 mM): 50 mOsm and 48 mOsm; Measured contribution of 25 mM base to osmolality ([1]; ammonium phosphate 40 mM): 44 mOsm; Measured contribution of 25 mM base to osmolality ([1]; ammonium phosphate 80 mM): 41 mOsm and 38 mOsm; Measured contribution of 25 mM base to osmolality ([1]; ammonium sulfate 40 mM): 45 mOsm; Measured contribution of 25 mM base to osmolality ([1]; ammonium sulfate 80 mM): 44 mOsm and 41 mOsm; Partition coefficient (Kp) octanol/water ([3]; pH 5.5, 120 mM (NH4)2SO4): 9.00 (at pH 5.5, 120 mM (NH4)2SO4); Ratio at saturation of precipitation ([4]; DS 8,000 Da): 40; Ratio at saturation of precipitation ([4]; DS 10,000 Da): 50; Ratio at which aggregation reaches a plateau ([4]; DS 10,000 Da): 50 nmole AO or BUP per 1 mmole DS; Mole ratio weak base/DS at which aggregation (precipitation) starts [4]: 1
CCCCN1CCCCC1C(=O)Nc1c(C)cccc1C (stereo not drawn) [BUP, bupivacaine]	–	97	100	None//None	100	91	None	100	100	None//None	97	84	97	88	None	32±5 mOsm and 32 mOsm	32	31	30 mOsm and 32 mOsm	32	Level of aggregation ([1]; ammonium phosphate 80 mM): None//|Low; Measured contribution of 25 mM base to osmolality ([1]; ammonium citrate 80 mM): 25 mOsm and 29 mOsm; Measured contribution of 25 mM base to osmolality ([1]; ammonium glucuronate 40 mM): 33 mOsm; Measured contribution of 25 mM base to osmolality ([1]; ammonium glucuronate 80 mM): 31 mOsm and 32 mOsm; Measured contribution of 25 mM base to osmolality ([1]; ammonium phosphate 40 mM): 30 mOsm; Measured contribution of 25 mM base to osmolality ([1]; ammonium phosphate 80 mM): 30 mOsm and 27 mOsm; Measured contribution of 25 mM base to osmolality ([1]; ammonium sulfate 40 mM): 31 mOsm; Measured contribution of 25 mM base to osmolality ([1]; ammonium sulfate 80 mM): 29 mOsm and 28 mOsm; Partition coefficient (Kp) octanol/water ([3]; pH 6, 250 mM (NH4)2SO4): 0.35 (at pH 6, 250 mM (NH4)2SO4); Ratio at which aggregation reaches a plateau ([4]; DS 10,000 Da): 50 nmole AO or BUP per 1 mmole DS; Mole ratio weak base/DS at which aggregation (precipitation) starts [4]: 1.0
N.O=C[C@H](O)[C@@H](O)[C@H](O)[C@H](O)C(=O)O [NH4 glucuronate, Ammonium glucuronate]	1.62	–	–	–	–	–	–	–	–	–	–	–	–	–	–	–	–	–	–	–	Conductivity [2]: 3.88 mS/cm
Cl.N [NH4Cl, Ammonium chloride]	1.96	–	–	–	–	–	–	–	–	–	–	–	–	–	–	–	–	–	–	–	–
[Cl-].[Na+] [NaCl]	2.00	–	–	–	–	–	–	–	–	–	–	–	–	–	–	–	–	–	–	–	–
CC1(C)CC(N)CC(C)(C)N1[O] [TMN, 2,2,6,6-tetramethylpiperidine-4-amino-1-oxyl]	–	100	60	medium	62	20	high	95	90	None	71	20	19	0	complete	21 mOsm	21	21	12 mOsm	13	Level of aggregation ([1]; ammonium chloride 40 mM): Low; Level of aggregation ([1]; ammonium citrate 40 mM): Medium; Level of aggregation ([1]; ammonium glucuronate 40 mM): None; Level of aggregation ([1]; ammonium phosphate 40 mM): Medium; Level of aggregation ([1]; ammonium phosphate 80 mM): high; Level of aggregation ([1]; ammonium sulfate 40 mM): High; Aggregation in NaCl solutions ([1]; NaCl): lack of aggregate formation; Ranking of extent of aggregation with ammonium salts ([1]; Tables Ia, Ib, Ic): ammonium sulfate>ammonium citrate=ammonium phosphate>>ammonium chloride>ammonium glucuronate; Measured contribution of 25 mM base to osmolality ([1]; ammonium citrate 80 mM): 5 mOsm; Measured contribution of 25 mM base to osmolality ([1]; ammonium glucuronate 40 mM): 20 mOsm; Measured contribution of 25 mM base to osmolality ([1]; ammonium glucuronate 80 mM): 19 mOsm; Measured contribution of 25 mM base to osmolality ([1]; ammonium phosphate 40 mM): 15 mOsm; Measured contribution of 25 mM base to osmolality ([1]; ammonium phosphate 80 mM): 5 mOsm; Measured contribution of 25 mM base to osmolality ([1]; ammonium sulfate 40 mM): 4 mOsm; Measured contribution of 25 mM base to osmolality ([1]; ammonium sulfate 80 mM): 0 mOsm; Partition coefficient (Kp) octanol/water ([3]; pH 7, 150 mM (NH4)2SO4): 0.04 (at pH 7, 150 mM (NH4)2SO4); Leakage from liposomes ([5]; ammonium chloride gradient): less than 10%; Leakage from liposomes ([5]; ammonium glucuronate gradient): less than 10%; Leakage from liposomes ([5]; ammonium sulfate gradient, until 144 hr): no TV leakage was observed; Order of encapsulation stability by ammonium salt ([5]; 25° C. and 37° C.): (NH4)2SO4>>NH4Cl>NH4 glucuronate

— US20060165766A1, “Method for preparing liposome formulations with a predefined release profile” (priority 2001, published 2006)
